In article PMC10958470 (Virus Research, 2024):
“Also recorded” adds a separate entry of the source. Like-named read-outs stand apart in the source and are kept apart here.

Key:
[1] = target: RdRp complex (Severe acute respiratory syndrome coronavirus 2, UniProt P0DTD1); format: binding, SARS-CoV-2
[2] = target: GTPase dynamin; details: read-out: IC50 GTPase dynamin; ref Medchemexpress, 2023; cited from earlier work
[3] = system: annealed dsDNA substrate
[4] = target: SARS-CoV-2 helicase (nsp13) (Severe acute respiratory syndrome coronavirus 2, UniProt P0DTD1); experiment: biochemical; format: biochemical; details: for inhibition at 2.5 µM: read-out: DTT Helicase unwinding inhibition [%] 2.5 µM triplicates
[5] = target: SARS-CoV-2 RdRp nsp12/7/8 complex (Severe acute respiratory syndrome coronavirus 2, UniProt P0DTD1); experiment: biochemical; format: biochemical; details: for IC50: RdRp IC50 [µM]; for inhibition at 20 µM: read-out: RdRp Inhibition [%] 20 µM (PS Inhibition RdRp [%])
[6] = target: SARS-CoV-2 nsp13 NTPase activity (Severe acute respiratory syndrome coronavirus 2, UniProt P0DTD1); experiment: biochemical; format: biochemical
[7] = target: SARS-CoV-2 helicase (Severe acute respiratory syndrome coronavirus 2, UniProt P0DTD1); format: binding
[8] = system: SARS-CoV-2 RdRp; details: biochemical readout; ref Yin et al., 2021; cited from earlier work
[9] = read-out: Helicase Inhibition [%] 20 µM (PS Inhibition Helicase [%])

**Q.** For `O=C(N/N=C/c1ccc(O)c(O)c1)c1cc2ccccc2cc1O` [dynasore], which “RdRp Tm °C 20 µM” value [1] is on record?
**A.** 43.3 °C

**Q.** What about the “RdRp Tm °C 100 µM” value [1] of the same compound?
**A.** 44.5 °C

**Q.** What about the “effect on RdRp melting temperature” value [1] of the same compound?
**A.** concentration-dependent protein stabilizing effect

**Q.** And the “increase of Tm of RdRp” value [1]?
**A.** about 1.5 K

**Q.** What about the IC50 [2] of the same compound?
**A.** 15 µM

**Q.** What about the “PicoGreen effect [%] 20 µM” value [3] of the same compound?
**A.** 6.63%

**Q.** What about the inhibition at 20 µM [4, 9] of the same compound?
**A.** 7.02%

**Q.** And the “change of RdRp IC50 with increasing ATP concentration” value [5]?
**A.** did not detect any change

**Q.** What about the “change of RdRp IC50 with increasing oligo-U concentration” value [5] of the same compound?
**A.** gain of potency in the presence of 3 µM oligo-U

**Q.** What about the IC50 [5] of the same compound?
**A.** 6.22 µM

**Q.** And the inhibition at 20 µM [5]?
**A.** 96.1%

**Q.** With `O=c1c(O)c(-c2ccc(O)c(O)c2)oc2cc(O)ccc12` [fisetin (fustel), fisetin] as the compound, how does the “RdRp Tm °C 20 µM” value [1] read?
**A.** 42.7 °C

**Q.** What about the “RdRp Tm °C 100 µM” value [1] of the same compound?
**A.** 43.5 °C

**Q.** What about the “PicoGreen effect [%] 20 µM” value [3] of the same compound?
**A.** 4.99%

**Q.** And the inhibition at 20 µM [4, 9]?
**A.** 39.3%

**Q.** What about the IC50 [5] of the same compound?
**A.** 2.17 µM

**Q.** And the inhibition at 20 µM [5]?
**A.** 95.8%

**Q.** Which “DTT Helicase ATPase activity PLUS DNA substrate 2 µM” value [6] does the source give for `O=c1c(O)c(-c2cc(O)c(O)c(O)c2)oc2cc(O)cc(O)c12` [myricetin (cannabiscetin), myricetin] here?
**A.** 77.50

**Q.** What about the “DTT Helicase ATPase activity [%] 2 µM” value [6] of the same compound?
**A.** 62.36%

**Q.** And the “RdRp Tm °C 20 µM” value [1]?
**A.** 42.7 °C

**Q.** What about the “RdRp Tm °C 100 µM” value [1] of the same compound?
**A.** 43.6 °C

**Q.** What about the “effect on RdRp melting temperature” value [1] of the same compound?
**A.** no shift in Tm

**Q.** What about the “Helicase Tm °C 20 µM” value [7] of the same compound?
**A.** 38.3 °C

**Q.** And the “Helicase Tm °C 100 µM” value [7]?
**A.** 38.8 °C

**Q.** What about the “effect on helicase Tm” value [7] of the same compound?
**A.** did not result in a Tm change

**Q.** And the “DTT nsp13 inhibition [%] 20 µM (DTT HC Helicase inhibition [%])” value [4]?
**A.** 67.25%

**Q.** And the inhibition at 2.5 µM [4]?
**A.** 22.1%

**Q.** What about the inhibition at 20 µM ([4]; read-out: DTT nsp13 inhibition [%] 20 µM (DTT HC Helicase inhibition [%])) of the same compound?
**A.** > 50%

**Q.** And the inhibition at 20 µM [4, 9]?
**A.** 100%

**Q.** Which “DTT Helicase ATPase activity PLUS DNA substrate 2 µM” value [6] does the source give for `Cc1ccc(C(=O)Nc2ccc(S(=O)(=O)O)c3cc(S(=O)(=O)O)cc(S(=O)(=O)O)c23)cc1NC(=O)c1cccc(NC(=O)Nc2cccc(C(=O)Nc3cc(C(=O)Nc4ccc(S(=O)(=O)O)c5cc(S(=O)(=O)O)cc(S(=O)(=O)O)c45)ccc3C)c2)c1` [suramin hexasodium] here?
**A.** 63.38

**Q.** What about the “DTT Helicase ATPase activity [%] 2 µM” value [6] of the same compound?
**A.** 121.61%

**Q.** And the “inhibition of helicase NTPase activity, 2 mM DTT” value [6]?
**A.** only active in presence of dsDNA substrate

**Q.** And the “inhibition of helicase NTPase activity, absence of DTT” value [6]?
**A.** showed inhibition in absence of DTT, independent of the presence of the dsDNA substrate

**Q.** What about the “RdRp Tm °C 20 µM” value [1] of the same compound?
**A.** 44.3 °C

**Q.** What about the “RdRp Tm °C 100 µM” value [1] of the same compound?
**A.** 46.6 °C

**Q.** And the “effect on RdRp melting temperature” value [1]?
**A.** increase in melting temperature; also recorded: concentration-dependent protein stabilizing effect

**Q.** What about the “fold stronger inhibition of SARS-CoV-2 RdRp compared to Remdesivir” value [8] of the same compound?
**A.** 20 fold

**Q.** What about the “Helicase Tm °C 20 µM” value [7] of the same compound?
**A.** 36.8 °C

**Q.** And the “Helicase Tm °C 100 µM” value [7]?
**A.** 36.5 °C

**Q.** What about the “effect on helicase Tm” value [7] of the same compound?
**A.** decrease in Tm

**Q.** And the “DTT nsp13 inhibition [%] 20 µM (DTT HC Helicase inhibition [%])” value [4]?
**A.** 92.60%

**Q.** And the IC50 ([4]; DTT Helicase IC50 [µM])?
**A.** 5.42 µM

**Q.** And the inhibition at 2.5 µM [4]?
**A.** 53.1%

**Q.** What about the inhibition at 20 µM [4, 9] of the same compound?
**A.** 98%

**Q.** And the “RdRp Inhibition [%] 20 µM (PS Inhibition RdRp [%])” value [5]?
**A.** 98.49%

**Q.** And the “change of RdRp IC50 with increasing ATP concentration” value [5]?
**A.** no changes in IC50

**Q.** What about the “change of RdRp IC50 with increasing oligo-U concentration” value [5] of the same compound?
**A.** no changes in IC50

**Q.** And the IC50 [5]?
**A.** 0.24 µM
